Patent US5807825A, “Platelet aggregation inhibitors” (COR Therapeutics, Inc., priority 1995, dated 1998)
Where a SMILES comes first, the peptide text is derived from it. Bridges are numbered along the chain shown (N, C = ends).

How the values were obtained:
GP IIb-IIIa = biological target: T1, GP IIb-IIIa (Homo sapiens, UniProt P05106+P08514); experiment: plate assay: binding of labeled ligand (fibrinogen, vWF) to immobilized purified GP IIb-IIIa; settings: plate assays, in words; FIGS. 2A-2C, 30A-30E
T1 construct: Purified platelet GP IIb-IIIa receptor was prepared as described by Fitzgerald, L. A., et al; from tissue; host or cells: platelets
Method: In the assay, GP IIb-IIIa, prepared in purified form, for example as described by Fitzgerald, L. A., et al., Anal Biochem (1985) 151:169-177, incorporated herein by reference, is coated onto a solid support such as beads, test tubes, or microtiter plates. […] Fibrinogen is typically provided at a concentration of about 5-50 nM and the test material can, if desired, be added at a series of dilutions. Typical incubations are 2-4 hr at 35° C., the time and temperature being interdependent.
After incubation, the solution containing the fibrinogen and test material is removed and the level of binding of fibrinogen measured by quantitating bound fibrinogen to GP IIb-IIIa. Any suitable means of detection may be used, but it is convenient to employ labeled fibrinogen, for example using radioactive, fluorescent or biotinylated labels. Such methods are well known and need not be elaborated here.
In this case, percent inhibition may be calculated using the amount of Fg bound in the control as representing the basis, so that [formula] Other measures of inhibition effectiveness, such as IC50, may also be used.
Purified platelet GP IIb-IIIa receptor was prepared as described by Fitzgerald, L. A., et al., Anal Biochem (1985) 151:169-177. […] After purification, the receptors were stored in 0.1% Triton X-100 at 0.1-1.0 mg/ml. […]
The labeled ligands were added to the receptor-coated wells at final concentration of 10 nM (100 ul/well) and incubated for 3 h at 30° C. in the presence or absence of the test samples. After incubation, the wells are aspirated to dryness and bound ligand is quantitated.
For ^125 I-labeled ligands, the protein is solubilized with 250 ul SDS. For biotinylated ligands, the bound protein is detected by the addition of antibiotin antibody conjugated to alkaline phosphatase followed by addition of substrate (p-nitrophenyl phosphate), and determination of the optical density of each well at 405 nm. […]

[1] = test system: thrombi formation in dog coronary arteries; experiment: Folts model of thrombosis, cyclic flow reductions (CFRs) in open chest dog coronary artery; type: in vivo
Method: A. Initiation of cyclic flow reductions (CFRs) in open chest dog. An occluder placed on the left anterior descending (LAD) coronary artery of a 20 kg dog, as previously described was performed.

M21 melanoma cells = experiment: attachment of 35S-methionine labelled M21 melanoma cells to vitronectrin-coated plates; type: cell-based; settings: FIGS. 31-34
Method: M21 melanoma cells, which express high levels of the vitronectrin receptor, were metabolically labelled with ^35 S-methionine, and then added to 24-well tissue culture plates coated with vitronectrin. An incubation period of 1 hr at 37° C. was allowed for cell attachment, and this was followed by a wash to remove non-adherent cells. After washing, the adherent cells were solubilized, and the supernatants placed in a liquid scintillation counter. The fraction of cells remaining adherent was calculated by dividing the cpm in the solubilized supernatants by the cpm in the total number of cells added to each well. The effects of purified snake venom peptides and synthetic cyclic peptides on cell adhesion was determined by including them with the M21 cells during the incubation period.
M21 melanoma cells were labelled with ^35 S-methionine, and then added to vitronectrin-coated plates in the presence of the indicated concentrations of purified snake venom peptides. Cell attachment was measured by solubilizing the cells remaining after an incubation and wash, as described in Section C, on page 40.

fibronectin receptor = fibronectin receptor (Homo sapiens, UniProt P05556+P08648); settings: background art; cited from earlier work
vitronectrin receptor [2] = biological target: T2, vitronectrin receptor (Homo sapiens, UniProt P05106+P06756); settings: background art; compared with same peptide before cyclization; cited from earlier work
T2 construct: Vitronectrin receptor was prepared as described by Smith, J. W., J Biol Chem (1988) 263:18726-18731; from tissue

vitronectrin receptor [3] = biological target: T2, vitronectrin receptor; experiment: plate assay: binding of labeled ligand (vitronectrin, vWF) to immobilized vitronectrin receptor; settings: FIGS. 26-28

T1 sequence (P08514 32-887 limits assumed): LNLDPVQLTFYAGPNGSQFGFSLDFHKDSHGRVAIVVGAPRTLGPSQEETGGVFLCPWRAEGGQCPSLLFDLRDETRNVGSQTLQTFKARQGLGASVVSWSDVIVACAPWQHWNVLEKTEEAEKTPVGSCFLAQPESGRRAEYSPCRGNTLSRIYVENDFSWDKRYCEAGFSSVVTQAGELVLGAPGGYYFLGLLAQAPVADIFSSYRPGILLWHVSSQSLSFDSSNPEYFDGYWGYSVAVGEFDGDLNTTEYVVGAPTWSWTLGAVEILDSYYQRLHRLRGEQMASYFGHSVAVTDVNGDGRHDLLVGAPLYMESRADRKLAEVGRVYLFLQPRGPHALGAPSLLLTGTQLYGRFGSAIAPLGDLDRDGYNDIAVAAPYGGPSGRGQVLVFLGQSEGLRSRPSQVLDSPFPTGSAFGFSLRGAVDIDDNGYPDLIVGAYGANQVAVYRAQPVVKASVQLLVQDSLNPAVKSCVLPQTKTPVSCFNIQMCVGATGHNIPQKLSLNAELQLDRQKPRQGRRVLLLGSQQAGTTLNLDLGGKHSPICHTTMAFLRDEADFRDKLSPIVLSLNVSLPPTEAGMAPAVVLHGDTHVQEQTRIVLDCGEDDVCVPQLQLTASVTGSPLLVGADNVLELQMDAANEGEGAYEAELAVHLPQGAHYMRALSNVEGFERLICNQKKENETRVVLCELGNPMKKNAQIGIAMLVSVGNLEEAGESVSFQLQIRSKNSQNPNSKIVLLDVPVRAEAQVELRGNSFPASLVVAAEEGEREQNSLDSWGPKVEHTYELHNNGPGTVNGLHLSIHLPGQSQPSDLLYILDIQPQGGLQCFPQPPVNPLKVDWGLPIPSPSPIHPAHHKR
T1 sequence (P08514 891-1039 partner limits assumed): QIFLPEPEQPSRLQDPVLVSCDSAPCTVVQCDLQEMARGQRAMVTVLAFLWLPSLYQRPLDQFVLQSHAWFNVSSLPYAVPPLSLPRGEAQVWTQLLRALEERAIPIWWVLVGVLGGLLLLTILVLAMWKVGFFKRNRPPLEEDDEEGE
T1 sequence (P05106 27-788): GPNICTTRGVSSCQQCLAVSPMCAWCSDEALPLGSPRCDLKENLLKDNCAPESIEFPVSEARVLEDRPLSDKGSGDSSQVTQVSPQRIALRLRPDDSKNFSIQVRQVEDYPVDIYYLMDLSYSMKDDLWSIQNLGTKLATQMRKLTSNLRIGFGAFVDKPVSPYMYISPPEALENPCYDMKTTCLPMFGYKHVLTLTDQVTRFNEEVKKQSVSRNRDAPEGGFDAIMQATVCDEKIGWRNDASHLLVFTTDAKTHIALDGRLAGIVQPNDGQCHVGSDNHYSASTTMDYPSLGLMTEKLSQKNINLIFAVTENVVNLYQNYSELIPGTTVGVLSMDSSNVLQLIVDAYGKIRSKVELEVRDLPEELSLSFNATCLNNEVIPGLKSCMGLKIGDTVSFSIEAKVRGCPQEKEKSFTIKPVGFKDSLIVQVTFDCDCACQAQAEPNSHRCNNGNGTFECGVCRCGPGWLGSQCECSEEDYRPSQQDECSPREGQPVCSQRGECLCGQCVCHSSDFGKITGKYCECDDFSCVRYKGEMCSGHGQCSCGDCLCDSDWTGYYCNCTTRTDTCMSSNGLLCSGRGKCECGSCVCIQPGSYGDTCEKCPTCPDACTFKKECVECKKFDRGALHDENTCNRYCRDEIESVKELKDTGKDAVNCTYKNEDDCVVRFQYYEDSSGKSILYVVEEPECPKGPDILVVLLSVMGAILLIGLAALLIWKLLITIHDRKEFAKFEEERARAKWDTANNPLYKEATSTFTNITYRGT
T2 sequence (P06756 31-889 limits assumed): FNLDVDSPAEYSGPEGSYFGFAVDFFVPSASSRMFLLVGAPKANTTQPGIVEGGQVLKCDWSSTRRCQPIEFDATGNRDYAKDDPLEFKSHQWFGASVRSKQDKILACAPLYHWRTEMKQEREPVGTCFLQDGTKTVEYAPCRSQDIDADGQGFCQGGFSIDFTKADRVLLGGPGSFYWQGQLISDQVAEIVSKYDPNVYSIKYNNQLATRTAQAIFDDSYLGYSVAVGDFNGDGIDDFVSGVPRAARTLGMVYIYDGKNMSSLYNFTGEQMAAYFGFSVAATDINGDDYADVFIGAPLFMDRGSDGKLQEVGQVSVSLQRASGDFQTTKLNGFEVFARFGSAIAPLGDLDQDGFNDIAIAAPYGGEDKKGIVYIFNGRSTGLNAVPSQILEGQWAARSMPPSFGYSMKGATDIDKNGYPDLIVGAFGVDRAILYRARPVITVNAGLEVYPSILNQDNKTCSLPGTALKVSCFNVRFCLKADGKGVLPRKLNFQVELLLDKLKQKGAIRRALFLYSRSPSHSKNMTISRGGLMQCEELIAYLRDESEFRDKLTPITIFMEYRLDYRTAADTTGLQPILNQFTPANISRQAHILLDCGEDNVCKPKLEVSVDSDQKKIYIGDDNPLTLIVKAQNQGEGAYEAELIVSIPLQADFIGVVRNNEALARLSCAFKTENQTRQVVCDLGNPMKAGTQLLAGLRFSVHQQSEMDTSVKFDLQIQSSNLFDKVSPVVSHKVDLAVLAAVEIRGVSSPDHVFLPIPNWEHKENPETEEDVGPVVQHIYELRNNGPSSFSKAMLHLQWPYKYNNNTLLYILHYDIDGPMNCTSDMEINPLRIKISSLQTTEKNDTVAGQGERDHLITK
T2 sequence (P06756 891-1048 partner limits assumed): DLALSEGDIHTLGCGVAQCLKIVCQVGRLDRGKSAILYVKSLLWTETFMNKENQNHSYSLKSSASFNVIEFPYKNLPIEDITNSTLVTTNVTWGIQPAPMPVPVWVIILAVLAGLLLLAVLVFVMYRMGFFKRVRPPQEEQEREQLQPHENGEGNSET
T2 sequence (P05106 27-788): as the sequence (P05106 27-788) above
Chain of fibronectin receptor (P08648 42-894 limits assumed): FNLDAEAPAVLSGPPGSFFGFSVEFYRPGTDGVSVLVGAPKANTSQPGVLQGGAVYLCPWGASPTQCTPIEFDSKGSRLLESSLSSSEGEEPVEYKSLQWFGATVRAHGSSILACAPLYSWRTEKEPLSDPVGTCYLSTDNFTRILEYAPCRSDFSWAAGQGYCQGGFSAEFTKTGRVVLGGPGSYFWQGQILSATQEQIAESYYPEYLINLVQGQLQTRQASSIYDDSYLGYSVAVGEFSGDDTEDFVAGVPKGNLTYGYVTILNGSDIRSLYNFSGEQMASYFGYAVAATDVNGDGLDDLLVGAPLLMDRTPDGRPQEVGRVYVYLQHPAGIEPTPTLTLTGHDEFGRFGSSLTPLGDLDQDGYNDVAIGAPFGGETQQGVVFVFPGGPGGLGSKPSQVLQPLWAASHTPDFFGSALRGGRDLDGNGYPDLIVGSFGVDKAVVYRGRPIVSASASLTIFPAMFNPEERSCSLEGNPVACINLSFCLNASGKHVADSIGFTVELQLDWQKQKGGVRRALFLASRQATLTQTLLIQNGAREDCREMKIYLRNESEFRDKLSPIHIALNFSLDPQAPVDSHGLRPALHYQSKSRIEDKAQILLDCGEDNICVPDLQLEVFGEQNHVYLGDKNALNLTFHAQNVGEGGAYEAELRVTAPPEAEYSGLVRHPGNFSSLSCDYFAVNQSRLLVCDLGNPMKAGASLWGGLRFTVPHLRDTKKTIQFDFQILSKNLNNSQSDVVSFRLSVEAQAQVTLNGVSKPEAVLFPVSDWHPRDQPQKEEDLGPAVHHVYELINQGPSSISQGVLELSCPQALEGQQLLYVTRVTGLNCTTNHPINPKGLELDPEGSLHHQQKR
Chain of fibronectin receptor (P08648 895-1049 partner limits assumed): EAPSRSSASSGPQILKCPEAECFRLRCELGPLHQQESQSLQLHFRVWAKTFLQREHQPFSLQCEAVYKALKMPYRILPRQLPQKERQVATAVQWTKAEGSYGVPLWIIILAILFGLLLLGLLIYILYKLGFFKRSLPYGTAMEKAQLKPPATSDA
Chain of fibronectin receptor (P05556 21-798): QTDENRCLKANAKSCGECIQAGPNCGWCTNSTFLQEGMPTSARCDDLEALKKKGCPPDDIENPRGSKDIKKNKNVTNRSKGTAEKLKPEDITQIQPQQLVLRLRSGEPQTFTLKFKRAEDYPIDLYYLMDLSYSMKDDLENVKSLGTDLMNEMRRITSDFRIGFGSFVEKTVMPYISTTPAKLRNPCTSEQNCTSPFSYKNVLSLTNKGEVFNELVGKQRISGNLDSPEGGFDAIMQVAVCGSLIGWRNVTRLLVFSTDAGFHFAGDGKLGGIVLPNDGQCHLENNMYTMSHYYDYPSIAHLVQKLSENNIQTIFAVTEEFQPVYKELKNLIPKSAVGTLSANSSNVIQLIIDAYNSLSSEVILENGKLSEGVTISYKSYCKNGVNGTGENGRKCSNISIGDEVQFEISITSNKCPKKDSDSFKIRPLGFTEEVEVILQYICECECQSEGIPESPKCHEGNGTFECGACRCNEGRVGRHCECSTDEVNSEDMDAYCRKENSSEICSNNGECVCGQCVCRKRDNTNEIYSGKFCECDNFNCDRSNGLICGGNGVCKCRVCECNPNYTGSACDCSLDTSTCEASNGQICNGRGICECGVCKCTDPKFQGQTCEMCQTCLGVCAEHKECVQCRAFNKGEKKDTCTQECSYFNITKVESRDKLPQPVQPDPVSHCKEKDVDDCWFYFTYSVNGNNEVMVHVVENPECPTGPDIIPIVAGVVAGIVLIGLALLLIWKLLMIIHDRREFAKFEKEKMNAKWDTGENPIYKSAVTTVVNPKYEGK

Compound: C[C@H](NC(=O)[C@@H]1CSSC[C@H](NC(=O)CN)C(=O)N[C@@H](CCCCN)C(=O)NCC(=O)N[C@@H](CC(=O)O)C(=O)N[C@@H](Cc2c[nH]c3ccccc23)C(=O)N1)C(N)=O [#7] (H-GCKGDWCA-NH2; disulfide 2-7)
- specificity: inhibition of fibrinogen/GP IIb-IIIa binding compared with vitronectrin/vitronectrin receptor binding (GP IIb-IIIa): quite specific

Compound: C[C@H](NC(=O)[C@@H]1CSSC[C@H](NC(=O)CN)C(=O)NCC(=O)N[C@@H](CCCCN)C(=O)NCC(=O)N[C@@H](CC(=O)O)C(=O)N[C@@H](Cc2c[nH]c3ccccc23)C(=O)N2CCC[C@H]2C(=O)N1)C(N)=O [#3]
- effect on cyclic flow reductions (CFRs) in LAD coronary artery ([1]; 10 mg into a peripheral vein, 20 kg open chest dog, FIG. 36): partial ablation of the CFRs
- effect on cyclic flow reductions (CFRs) in LAD coronary artery ([1]; second infusion of 40 mg into a peripheral vein, FIG. 37): complete ablation of the CFRs

Compound: C[C@H](NC(=O)[C@@H]1CSSC[C@H](NC(=O)CN)C(=O)N[C@@H](CCCCN)C(=O)NCC(=O)N[C@@H](CC(=O)O)C(=O)N[C@@H](Cc2c[nH]c3ccccc23)C(=O)N2CCC[C@H]2C(=O)N1)C(N)=O [#4] (H-GCKGDWPCA-NH2; disulfide 2-8)
- specificity: inhibition of fibrinogen/GP IIb-IIIa binding compared with vitronectrin/vitronectrin receptor binding (GP IIb-IIIa): highest differential

Compound: C[C@H](NC(=O)[C@@H]1CSSC[C@H](NC(=O)CN)C(=O)NCC(=O)N[C@@H](CCCCN)C(=O)NCC(=O)N[C@@H](CC(=O)O)C(=O)N[C@@H](Cc2c[nH]c3ccccc23)C(=O)N2CCC[C@H]2C(=O)N1)C(N)=O [Analog #3, G-C-G-K-G-D-W-P-C-A-NH2]
- effect on M21 cell adhesion/attachment to vitronectrin, in words (M21 melanoma cells): ineffective up to 60 uM

Compound: Gly-Pen-Gly-Arg-Gly-Asp-Ser-Pro-Cys-Ala (GRGDSPCA; N-terminal Gly-Pen; Pen-Cys disulfide cyclisation; printed: Gly-Arg-Gly-Asp-Ser-Pro-Cys-Ala) [cyclic peptide, disulfide bridge between Pen and Cys (Pierschbacher)]
- inhibition of fibronectin binding, in words (fibronectin receptor): ineffective in inhibiting fibronectin binding
- inhibition of vitronectrin binding, in words (vitronectrin receptor [2]): able to inhibit vitronectrin binding more strongly than the same peptide before cyclization

Compound: C[C@H](NC(=O)[C@@H]1CSSC[C@H](NC(=O)CN)C(=O)NCC(=O)N[C@@H](CCCNC(=N)N)C(=O)NCC(=O)N[C@@H](CC(=O)O)C(=O)N[C@@H](Cc2c[nH]c3ccccc23)C(=O)N2CCC[C@H]2C(=O)N1)C(N)=O [reference compound] (H-GCGRGDWPCA-NH2; disulfide 2-9)
- effect on M21 cell adhesion/attachment to vitronectrin, in words (M21 melanoma cells): potent inhibitors of cell attachment

Compound: EEPCATGPCCRRCKFKRAGKVCRVAKGDWNNDYCTGK- S-C-D-C-P-R-N-P-W-N-G (EEPCATGPCCRRCKFKRAGKVCRVAKGDWNNDYCTGKSCDCPRNPWNG) [Analog #2]
- inhibition of vitronectrin binding to vitronectrin receptor, in words (vitronectrin receptor [3]): inability to inhibit the binding of vitronectrin to the vitronectrin receptor

Compound: NCCCC[C@@H]1NC(=O)CNC(=O)[C@@H](N)CSSC[C@@H](C(N)=O)NC(=O)[C@@H]2CCCN2C(=O)[C@H](Cc2c[nH]c3ccccc23)NC(=O)[C@H](CC(=O)O)NC(=O)CNC1=O [#5] (H-CGKGDWPC-NH2; disulfide 1-8)
- specificity: inhibition of fibrinogen/GP IIb-IIIa binding compared with vitronectrin/vitronectrin receptor binding (GP IIb-IIIa): quite specific

Compound: N=C(N)NCCC[C@H](N)C(=O)NCC(=O)N[C@@H](CC(=O)O)C(=O)N[C@@H](CO)C(=O)O [RGDS, reference compound]
- effect on M21 cell adhesion/attachment to vitronectrin, in words (M21 melanoma cells): potent inhibitors of cell attachment

Compound: ECADGLCCDQCRFLKKGTVCRVAKGDWNDDTCTGQSC- D-C-P-R-N-G-L-Y-G (ECADGLCCDQCRFLKKGTVCRVAKGDWNDDTCTGQSCDCPRNGLYG) [Analog #1]
- effect on M21 cell adhesion/attachment to vitronectrin, in words (M21 melanoma cells): neither barbourin nor Peptide 1 (truncated barbourin) had a significant effect
